# Test results from patent US20070212773A1, “Electrical signal measuring device for cells in culture and electrical signal measuring method that uses same device” (priority 2006, published 2007).
# Test system: intestinal Caco-2 cells
# Assay: Impedance measurement of Caco-2 cells in culture after adding cupric chloride
# Type: cell-based
# Text: The device used is specifically described as follows. That is, the support body is made of PDMS, and the size of the compartment in the support body (the combined size of the upper compartment and the lower compartment) is 15 mm in length, 6 mm in width, and 1.6 mm in height. This compartment is divided into an upper compartment and a lower compartment each with a height of approximately 0.8 mm using a polyester porous membrane which is provided with a diameter of 0.4 μm and a thickness of 14 μm (code 3450, made by CORNING INC.). Gold-plated brass nail-shaped objects with a length of 15 mm, an external diameter of 0.5 mm, and its circular head portion with a thickness of 0.4 mm and a diameter of 1.2 mm are used as the upper electrode and the lower electrode using a flat surface of the head portion as a measuring surface. Also, the upper electrode is fixed to the support body with its surface opposite to the surface facing the lower electrode in contact with the inside surface of the upper support body, while the lower electrode is fixed to the support body with its surface facing the upper electrode in contact with the semipermeable membrane. At this time, the distance between the surfaces of the upper electrode that faces the lower electrode and the lower electrode is 0.4 mm. Then, these electrodes are connected to an alternating-current power supply. Culturing conditions: As the culture medium, 10% fetal bovine serum, 1% MEM nonessential amino acid solution, 20 mM HEPES buffer solution, […] penicillin, 100 μg streptomycin, and 1 μg amphotericin added to DMEM (Dulbecco's Minimum Essential Medium) is used, and culturing is performed at an ambient temperature of 37 degrees C., with the carbon dioxide concentration maintained at 5%. Measurement condition: Measurement is performed by using a commercially available impedance analyzer, by applying an AC electrical field of 10 mV amplitude (1 Hz to 10 MHz) across the electrodes. Using the device used in Example 1, while culturing intestinal Caco-2 cells to which cupric chloride is added; impedance of the cells was measured. The culturing conditions of the cells and impedance measurement conditions are the same as in Example 1. The culture medium was replaced every two days, with the impedance measurement being performed before and after the culture medium replacement. Culturing was normally performed until the seventh day from the start of culturing. After impedance measurement, cupric chloride was added to a concentration of 30 μM to the culture medium, and the cell culturing was continued as it was from the moment directly after the cupric chloride was added (0 hours) to four hours after the addition. After the passage of four hours, the impedance was measured, and the culture medium containing the cupric chloride was washed away by a culture medium not containing the cupric chloride, accordingly washing was performed while the cells in culture were remained in the device. During this period, the impedance of the cells in culture was arbitrarily measured. In the legend shown in FIG. 3, “3 days” means the third day from the start of culturing, while “7 days (4 hours after addition)” means four hours after addition of cupric chloride to the culture medium on the seventh day from the start of culturing.
smiles,measurement,setting,value
[Cl][Cu][Cl] [cupric chloride],change in impedance amplitude (membranous structure),"30 μM for 4 h, then washed, 25 hours after the addition, breakdown of the membranous structure",reduction
same,impedance phase θ around 10^6 Hz region,"30 μM for 4 h, then washed, 25 hours after the addition, curve shifted to higher frequency side",−53 degrees
same,impedance phase θ around 10^6 Hz region,"30 μM for 4 h, then washed, 48 hours after the addition, curve shifted to lower frequency side",−58 degrees
same,change in impedance amplitude (membranous structure),"30 μM for 4 h, then washed, 48 hours after the addition, renewal of the membranous structure",increase
same,change in impedance amplitude (membranous structure),"30 μM in culture medium, added on seventh day of culturing, until four hours from the addition",hardly any changes
same,change in impedance phase spectra curve,"30 μM, added on seventh day of culturing, until four hours from the addition",without large changes
